This is an account of results in patent US8653048B2 (Sanlugen Pharmatech Ltd., priority 2009, dated 2014).

This data set can be described thus: Pharmacokinetics of SL-01 and SL-02 in mice, intragastric. It is filed as in vivo. The note with it: both sexes, Kunming, mouse, plasma, po, SL-01 100 mg/kg intragastric. The method, then:
Kunming strain white mice (25+1 g, provided by Experimental Animal Center of Shandong University, half of which were male, half were female).
125 mg of SL-01 or SL-02 were weighed accurately and added into 10 mL volumetric flask. Water (containing 0.1% Tween-80) was added to the mark and mixed uniformly to get the suspensions of SL-01 or SL-02.
100 healthy Kunming mice were taken and divided into two groups randomly. The first group was given SL-01 and the second group was given SL-02. Five mice were settled parallel at each time point. SL-01 and SL-02 were administrated intragastricly with a dosage at 100 mg/kg (equivalent to 0.2 mL per mouse). The mice were fasted but allowed to drink for a 12 h period before administration. Blood samples were drawn from eyebase veniplex at 5 min, 15 min, 30 min, 45 min, 1 h, 2 h, 4 h, 6 h, 8 h, 12 h, 24 h, 48 h after the administration and put into heparin sodium treated centrifuge tubes containing 2.5 μL tetrahydrouridine solution (THU, 10 mg/ml) and centrifuged for 15 min at 4000 r/min. Isopropanol (1 mL) was added into the solution and vortexed for 30 s and kept still for 5 min. 2.5 ml of EtOAc was added and votexed and centrifuged at 4000 rpm for 15 minutes. The supernatant was taken and dried by blowing in nitrogen. The dried sample was redissolved in 200 μL HPLC mobile phase solution. 20 μL sample was loaded to the HPLC. The chromatography and peak area was recorded. The plasma concentrations of SL-01 and SL-02 was calculated. The average concentration of SL-01 and SL-02 was plotted with the time.

On to `CCCCCCCCCCCCOC(=O)c1nccnc1C(=O)Nc1ccn([C@@H]2O[C@H](CO)[C@@H](O)C2(F)F)c(=O)n1` [Compound 4, Dodecyl-3-((1-((2R,4R,5R)-3,3-difluoro-4-hydroxy-5-(hydroxymethyl)-tetrahydrofuran-2-yl)-2-oxo-1,2-dihydropyrimidin-4-yl)carbamoyl)pyrazine-2-carboxylate], for which the AUC(0-t) (analyte SL-01, read-out: AUC0-t, SL-01 Administration Group) was found to be 1810 ng·h/mL. Besides, under “analyte SL-01, read-out: Cmax, SL-01 Administration Group”, the Cmax is 4370 ng/mL. The MRT last (analyte SL-01, read-out: MRT0-t, SL-01 Administration Group) stood at 21.6 min. For the same molecule, where the note is “analyte SL-01, read-out: T1/2, SL-01 Administration Group (converted)”, the half-life was 31.1 min. For the same molecule, where the note is “analyte SL-01, read-out: Tmax, SL-01 Administration Group”, the Tmax stood at 15 min.
